Reference: patent US6355799B1, “Substituted benzene compounds, process for their preparation, and herbicidal and defoliant compositions containing them” (ISK Americas Incorporated, priority 1997, dated 2002)

Assays:
Type in all cases: in vivo
[1] = test system: redroot pigweed (Amaranthus retroflexus, AMARE); assay: Pre-emerge test, greenhouse herbicide activity screening; conditions: pre-emerge, rated 14 days after application, 0 = no damage, 100 = complete death
How it was run: (§1)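 Herbicidal damage is scored 0 (none) to 100 (complete plant death) two weeks after a simulated field spray. Rates span 15–1000 g ai/ha, delivered in acetone at 187 l/ha. For post-emergence treatments, plants have 2–3 leaves and the spray carries 0.25% v/v non-ionic surfactant.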

[2] = test system: barnyardgrass (Echinochloa crus-galli, ECHCG); assay: as above; conditions: pre-emerge, rated 14 days after application, 0 = no damage, 100 = complete death
How it was run: as §1

[3] = test system: common ragweed (Ambrosia artemisizfolia L., AMBEL); assay: as above; conditions: pre-emerge, rated 14 days after application, 0 = no damage, 100 = complete death
How it was run: as §1

[4] = test system: green foxtail (Setaria viridis, SETVI); assay: as above; conditions: pre-emerge, rated 14 days after application, 0 = no damage, 100 = complete death
How it was run: as §1

[5] = test system: ivyleaf morningglory (Ipomoea hederacea, IPOHE); assay: as above; conditions: pre-emerge, rated 14 days after application, 0 = no damage, 100 = complete death
How it was run: as §1

[6] = test system: johnsongrass (Sorghum halepense, SORHA); assay: as above; conditions: pre-emerge, rated 14 days after application, 0 = no damage, 100 = complete death
How it was run: as §1

[7] = test system: lambsquarters (Chenopodium album, CHEAL); assay: as above; conditions: pre-emerge, rated 14 days after application, 0 = no damage, 100 = complete death
How it was run: as §1

[8] = test system: large crabgrass (Digitaria sanguinalis, DIGSA); assay: as above; conditions: pre-emerge, rated 14 days after application, 0 = no damage, 100 = complete death
How it was run: as §1

[9] = test system: sicklepod (Cassia obtusifolia, CASOB); assay: as above; conditions: pre-emerge, rated 14 days after application, 0 = no damage, 100 = complete death
How it was run: as §1

[10] = test system: velvetleaf (Abutilon theophrasti, ABUTH); assay: as above; conditions: pre-emerge, rated 14 days after application, 0 = no damage, 100 = complete death
How it was run: as §1

[11] = test system: field corn (Zea mays L., var. Dekalb 535, CORN); assay: Pre-emerge test, crop safety; conditions: pre-emerge, rated 14 days after application, 0 = no damage, 100 = complete death
How it was run: (§2)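 Visual ratings on a 0-100 scale (0 no damage, 100 all plants dead) were taken at 14 days after treatment. Rates of 15-1000 g ai/ha in acetone, 187 l/ha, were sprayed onto soil one day after planting (pre-emerge) or onto 2-3 leaf plants with 0.25% v/v surfactant (post-emerge).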

[12] = test system: upland rice (Oryza sp., var. Tebonnet, RICE); assay: Pre-emerge test, crop safety; conditions: pre-emerge, rated 14 days after application, 0 = no damage, 100 = complete death
How it was run: as §2

[13] = test system: barnyardgrass (Echinochloa crus-galli, ECHCG); assay: Post-emerge test, greenhouse herbicide activity screening; conditions: phytotoxicity rating 0-100 (0 no damage, 100 complete death), 14 days after application
How it was run: (§3)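 Fourteen days after spraying, crop and weed injury was graded visually from 0, no effect, to 100, every plant dead. Test substances were dissolved in acetone and applied at 15–1000 g ai/ha with a flat-fan nozzle. Application was either pre-emergence, one day after sowing, or post-emergence at the 2–3 leaf stage.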

[14] = test system: common ragweed (Ambrosia artemisizfolia L., AMBEL); assay: as above; conditions: phytotoxicity rating 0-100 (0 no damage, 100 complete death), 14 days after application
How it was run: as §3

[15] = test system: green foxtail (Setaria viridis, SETVI); assay: as above; conditions: phytotoxicity rating 0-100 (0 no damage, 100 complete death), 14 days after application
How it was run: as §3

[16] = test system: ivyleaf morningglory (Ipomoea hederacea, IPOHE); assay: as above; conditions: phytotoxicity rating 0-100 (0 no damage, 100 complete death), 14 days after application
How it was run: as §3

[17] = test system: johnsongrass (Sorghum halepense, SORHA); assay: as above; conditions: phytotoxicity rating 0-100 (0 no damage, 100 complete death), 14 days after application
How it was run: as §3

[18] = test system: lambsquarters (Chenopodium album, CHEAL); assay: as above; conditions: phytotoxicity rating 0-100 (0 no damage, 100 complete death), 14 days after application
How it was run: as §3

[19] = test system: large crabgrass (Digitaria sanguinalis, DIGSA); assay: as above; conditions: phytotoxicity rating 0-100 (0 no damage, 100 complete death), 14 days after application
How it was run: as §3

[20] = test system: redroot pigweed (Amaranthus retroflexus, AMARE); assay: as above; conditions: phytotoxicity rating 0-100 (0 no damage, 100 complete death), 14 days after application
How it was run: as §3

[21] = test system: sicklepod (Cassia obtusifolia, CASOB); assay: as above; conditions: phytotoxicity rating 0-100 (0 no damage, 100 complete death), 14 days after application
How it was run: as §3

[22] = test system: velvetleaf (Abutilon theophrasti, ABUTH); assay: as above; conditions: phytotoxicity rating 0-100 (0 no damage, 100 complete death), 14 days after application
How it was run: as §3

[23] = test system: field corn (Zea mays L., var. Dekalb 535, CORN); assay: Post-emerge test, crop safety; conditions: phytotoxicity rating 0-100 (0 no damage, 100 complete death), 14 days after application
How it was run: as §1

[24] = test system: upland rice (Oryza sp., var. Tebonnet, RICE); assay: Post-emerge test, crop safety; conditions: phytotoxicity rating 0-100 (0 no damage, 100 complete death), 14 days after application
How it was run: as §1

In the case of `COc1c(Cl)cc(F)c(-n2c(=O)cc(C(F)(F)F)n(C)c2=O)c1NC(C)=O` [2-1], the “Pre-emerge Herbicidal Activity AMARE (phytotoxicity rating, scale 0-100)” value ([1]; 63 g ai/ha) is reported as 60, the “Pre-emerge Herbicidal Activity AMARE (phytotoxicity rating, scale 0-100)” value ([1]; 250 g ai/ha) is reported as 100 and the “Pre-emerge Herbicidal Activity ECHCG (phytotoxicity rating, scale 0-100)” value ([2]; 63 g ai/ha) is reported as 10. For the same molecule, the “Pre-emerge Herbicidal Activity ECHCG (phytotoxicity rating, scale 0-100)” value ([2]; 250 g ai/ha) was 70, the “Pre-emerge Herbicidal Activity AMBEL (phytotoxicity rating, scale 0-100)” value ([3]; 63 g ai/ha) was 50 and the “Pre-emerge Herbicidal Activity AMBEL (phytotoxicity rating, scale 0-100)” value ([3]; 250 g ai/ha) was 100. The “Pre-emerge Herbicidal Activity SETVI (phytotoxicity rating, scale 0-100)” value ([4]; 63 g ai/ha) was 80, the “Pre-emerge Herbicidal Activity SETVI (phytotoxicity rating, scale 0-100)” value ([4]; 250 g ai/ha) was 95 and the “Pre-emerge Herbicidal Activity IPOHE (phytotoxicity rating, scale 0-100)” value ([5]; 63 g ai/ha) was 95. For the same molecule, the “Pre-emerge Herbicidal Activity IPOHE (phytotoxicity rating, scale 0-100)” value ([5]; 250 g ai/ha) was 100, the “Pre-emerge Herbicidal Activity SORHA (phytotoxicity rating, scale 0-100)” value ([6]; 63 g ai/ha) was 30 and the “Pre-emerge Herbicidal Activity SORHA (phytotoxicity rating, scale 0-100)” value ([6]; 250 g ai/ha) was 70. The “Pre-emerge Herbicidal Activity CHEAL (phytotoxicity rating, scale 0-100)” value ([7]; 63 g ai/ha) was 90, the “Pre-emerge Herbicidal Activity CHEAL (phytotoxicity rating, scale 0-100)” value ([7]; 250 g ai/ha) was 100 and the “Pre-emerge Herbicidal Activity DIGSA (phytotoxicity rating, scale 0-100)” value ([8]; 63 g ai/ha) was 20. For the same molecule, the “Pre-emerge Herbicidal Activity DIGSA (phytotoxicity rating, scale 0-100)” value ([8]; 250 g ai/ha) was 100, the “Pre-emerge Herbicidal Activity CASOB (phytotoxicity rating, scale 0-100)” value ([9]; 63 g ai/ha) was 80 and the “Pre-emerge Herbicidal Activity CASOB (phytotoxicity rating, scale 0-100)” value ([9]; 250 g ai/ha) was 100. For the same molecule, the “Pre-emerge Herbicidal Activity ABUTH (phytotoxicity rating, scale 0-100)” value ([10]; 63 g ai/ha) was 100, the “Pre-emerge Herbicidal Activity ABUTH (phytotoxicity rating, scale 0-100)” value ([10]; 250 g ai/ha) was 100 and the “Pre-emerge crop damage CORN (phytotoxicity rating, scale 0-100)” value ([11]; 63 g ai/ha) was 30. For the same molecule, the “Pre-emerge crop damage CORN (phytotoxicity rating, scale 0-100)” value ([11]; 250 g ai/ha) was 80, the “Pre-emerge crop damage RICE (phytotoxicity rating, scale 0-100)” value ([12]; 63 g ai/ha) was 80 and the “Pre-emerge crop damage RICE (phytotoxicity rating, scale 0-100)” value ([12]; 250 g ai/ha) was 90. The “Post-emerge Herbicidal Activity ECHCG” value ([13]; 63 g ai/ha) was 0, the “Post-emerge Herbicidal Activity ECHCG” value ([13]; 250 g ai/ha) was 10 and the “Post-emerge Herbicidal Activity AMBEL” value ([14]; 63 g ai/ha) was 30. The “Post-emerge Herbicidal Activity AMBEL” value ([14]; 250 g ai/ha) was 85, the “Post-emerge Herbicidal Activity SETVI” value ([15]; 63 g ai/ha) was 0 and the “Post-emerge Herbicidal Activity SETVI” value ([15]; 250 g ai/ha) was 30. For the same molecule, the “Post-emerge Herbicidal Activity IPOHE” value ([16]; 63 g ai/ha) was 100, the “Post-emerge Herbicidal Activity IPOHE” value ([16]; 250 g ai/ha) was 100 and the “Post-emerge Herbicidal Activity SORHA” value ([17]; 63 g ai/ha) was 0. For the same molecule, the “Post-emerge Herbicidal Activity SORHA” value ([17]; 250 g ai/ha) was 0, the “Post-emerge Herbicidal Activity CHEAL” value ([18]; 63 g ai/ha) was 95 and the “Post-emerge Herbicidal Activity CHEAL” value ([18]; 250 g ai/ha) was 100. For the same molecule, the “Post-emerge Herbicidal Activity DIGSA” value ([19]; 63 g ai/ha) was 0, the “Post-emerge Herbicidal Activity DIGSA” value ([19]; 250 g ai/ha) was 0 and the “Post-emerge Herbicidal Activity AMARE” value ([20]; 63 g ai/ha) was 50. The “Post-emerge Herbicidal Activity AMARE” value ([20]; 250 g ai/ha) was 100, the “Post-emerge Herbicidal Activity CASOB” value ([21]; 63 g ai/ha) was 50 and the “Post-emerge Herbicidal Activity CASOB” value ([21]; 250 g ai/ha) was 100. The “Post-emerge Herbicidal Activity ABUTH” value ([22]; 63 g ai/ha) was 100, the “Post-emerge Herbicidal Activity ABUTH” value ([22]; 250 g ai/ha) was 100 and the “Post-emerge Herbicidal Activity CORN (crop damage)” value ([23]; 63 g ai/ha) was 10. The “Post-emerge Herbicidal Activity CORN (crop damage)” value ([23]; 250 g ai/ha) was 15, the “Post-emerge Herbicidal Activity RICE (crop damage)” value ([24]; 63 g ai/ha) was 30 and the “Post-emerge Herbicidal Activity RICE (crop damage)” value ([24]; 250 g ai/ha) was 70.
